Test results published in US10137185B2, “PAP peptide analogues” (THE NOTTINGHAM TRENT UNIVERSITY, priority 2014, dated 2018).

How the values were obtained:
HLA-A2 = settings: WO 2005/090560; cited from earlier work
splenocytes [1] = assay: Peptide immunisation of C57Bl/6 mice, ex vivo IFNγ ELISPOT of splenocytes; assay type: in vivo; settings: for number of spots generated by splenocytes from immunised animals: 100 μg 15-mer day 1, PAP-115-123 day 14, 1×10^6 splenocytes with 1 μg 9-mer peptide, 3 mice
Protocol: FIG. 9. Comparison of IFNγ responses induced by PAP-115-123 peptide and PAP-115-123 analogue peptide immunisation (A) and to varying PAP-115-123 peptide/analogue peptide concentrations (B), as determined using an ex vivo ELISPOT. C57Bl/6 mice in the PAP-115-123 peptide immunisation group were immunised with 100 μg of PAP-114-128 on day 1 and 75 μg of PAP-115-123 on day 14. C57Bl/6 mice in the PAP-115-123 analogue peptide immunisation group were immunised with 100 μg of PAP-114-128 analogue peptide on day 1 and 75 μg of PAP-115-123 on day 14. A week after the final immunisation, spleens were isolated for the ex vivo ELISPOT assay. For the assay, 1×10^6 splenocytes were co-cultured with 1 μg of PAP-115-123 peptide or PAP-115-123 analogue peptide. Splenocytes with no added peptide were used as control. Comparisons of means (±SEM) between groups (splenocytes pulsed with PAP-115-123 peptide or PAP-115-123 analogue peptide) are made with an unpaired t test. The experiment was performed with three mice per group.
The PAP-115-123 peptide which was obtained by altering the second amino acid of the sequence from alanine to […] was predicted to have a higher HLA-2 binding score by the syfpeithi database. The binding score of PAP-115-123 epitope (SAMTNLAAL) (SEQ ID NO. 13) to HLA-A2.1 was 24 and that of the analogue peptide (SLMTNLAAL) (SEQ ID NO. 8) was 30. The immunogenicity of PAP-115-123 epitope and its analogue epitope was assessed by immunising syngeneic C57Bl/6 mice with these peptides. C57Bl/6 mice were immunised with 100 μg of PAP-114-128 on day 1 and […] of PAP-115-123 on day 14 or 100 μg of PAP-114-128 analogue peptide on day 1 and […] of PAP-115-123 on day 14. A week after the final immunisation spleens were isolated for the ex vivo ELISPOT assay. For this, 1×10^6 splenocytes were co-cultured with 1 μg of PAP-115-123 peptide or PAP-115-123 analogue peptide. Splenocytes with no added peptide were used as control. A 2-fold higher IFNγ response by splenocytes from animals immunised with the PAP-114-128 analogue peptide was observed (FIG. 9A). The number of spots in generated by splenocytes from PAP-114-128 immunised animals was 280, whereas the number of spots generated by splenocytes from PAP-114-128 analogue immunised animals was 590. Comparisons of means (±SEM) between groups (splenocytes pulsed with PAP-114-128 peptide or PAP-114-128 analogue peptide) were performed using the unpaired t test, and there were 3 animals in each group. Peptide-specific IFNγ responses generated by splenocytes that had been pulsed with varying concentrations (10, 1, 0.1, 0.01, 0.001 and 0.0001 mg/ml) of PAP-15-123 epitope or analogue epitope were also evaluated.

TRAMP-C1 cells = assay: Ex vivo IFNγ ELISPOT of splenocytes of immunised mice co-cultured with TRAMP-C1 or MC38 cells; assay type: in vivo, C57Bl/6 mice
Protocol: FIG. 10. Comparison of IFNγ responses generated by splenocytes from mice that have been immunised with PAP-115-123 analogue peptide, and which have been co-cultured with TRAMP-C1 cells and MC38 cells, as determined using an ex vivo ELISPOT. C57Bl/6 mice were immunised with 100 μg of PAP-114-128 analogue peptide on day 1 and 75 μg of PAP-115-123 on day 14. Splenocytes were isolated for the ex vivo ELISPOT assay a week after the final immunisation. For the assay, 1×10^6 splenocytes were co-cultured with 1×10^5 TRAMP-C1 ‘stimulator’ cells. Control wells received 1×10^5 MC38 cells as stimulator cells. Comparisons of means (±SEM) between groups (splenocytes pulsed with TRAMP-C1 or MC38) are made using an unpaired t test. The experiment was performed with three mice per group.
To assess whether the T cells generated following PAP-114-128 analogue peptide immunisation could recognise naturally processed PAP-115-123 epitopes, the IFNγ response of splenocytes from the immunised mice that had been co-cultured with TRAMP-C1 cells (that naturally express PAP) was assessed using the ELISPOT. For this, 1×10^6 splenocytes were co-cultured with 1×10^5 TRAMP-C1 cells as stimulator cells. […] The number of spots generated by co-culture splenocytes with TRAMP-C1 cells was 650, whereas and number of spots obtained when using MC38 cells as stimulators was 100. The experiment was performed with three mice per group.

splenocytes [2] = assay: Peptide immunisation of HHDII/DRI mice, ex vivo IFNγ ELISPOT of splenocytes; assay type: in vivo
Protocol: FIG. 11. Comparison of IFNγ responses generated by splenocytes isolated from HHDII/DRI mice that have been immunised with PAP-114-128 peptide and PAP-114-128 analogue peptide, as determined using an ex vivo ELISPOT. HHDII/DRI mice were immunised with 100 μg of PAP-114-128 on day 1 and 75 μg of PAP-115-123 on day 14, or 100 μg of PAP-114-128 analogue peptide on day 1 and 75 μg of PAP-115-123 on day 14. Splenocytes were isolated for the ex vivo ELISPOT assay a week after the final immunisation. For the assay, 1×10^6 splenocytes were co-cultured with 1 μg of class I PAP-115-123 peptide or PAP-115-123 analogue peptide or 10 μg of class II PAP-114-128 peptide or PAP-114-128 analogue peptide. Splenocytes with no added peptide were used as control. Comparisons of means (±SEM) between groups (splenocytes pulsed with class I/class II peptide or class I/class II analogue peptide) are made using an unpaired t test. The experiment was performed with three mice per group.
The immunogenic efficiencies of the PAP-115-123 epitope peptide and the PAP-115-123 analogue peptides were further compared using transgenic HHDII/DRI mice. For this, HHDII/DRI mice in the PAP-114-128 peptide immunisation group were immunised with 100 μg of PAP-114-128 on day 1 and 75 μg of PAP-115-123 on day 14. HHDII/DRI mice in the PAP-114-128 analogue peptide immunisation group was immunised with 100 μg of PAP-114-128 analogue peptide on day 1 and 75 μg of PAP-115-123 on day 14. A week after the final immunisation spleens were isolated for the ex vivo ELISPOT assay. For the assay, 1×10^6 splenocytes were co-cultured with 1 μg of class I PAP-115-123 peptide or PAP-115-123 analogue peptide or 10 μg of class II PAP-114-128 peptide or PAP-114-128 analogue peptide. Splenocytes with no added peptide were used as control. […] The experiment was performed with three mice per group.

[3] = test system: PBMCs from HLA-A2 positive patients with prostate cancer and individuals with benign disease; assay: IFNγ ELISPOT of PBMCs from prostate cancer patients and individuals with benign disease after peptide re-stimulation; assay type: cell-based, human; settings: for peptide-specific IFNγ response in samples from individuals with benign disease: 10 benign individuals
Protocol: FIG. 3. IFNγ response of peripheral blood mononuclear cells (PBMCs) isolated from patients with prostate cancer and individuals with benign disease after re-stimulation with PAP-115-123 epitope using an ELISPOT assay. Cryopreserved PBMCs from ten HLA-A2 positive prostate cancer patients and ten benign candidates were compared. The PBMCs were cultured in vitro with 5 μg of PAP-114-128 epitope for 7 days. The cells were then washed and rested overnight and 4×10^4 cells were added to each well of an ELISPOT plate. PAP-115-123 epitope peptide (1 μg) was added per well and cells cultured for 48 hours. The plates were then washed according to the manufacturer's protocol. PBMCs with no added peptide were used as control. Comparisons of means (±SEM) between groups (cells pulsed with PAP-115-123 or no peptide) are made using an unpaired t test.
FIG. 12. IFNγ responses generated by PBMCs isolated from 10 patients with prostate cancer and 10 individuals with benign disease after re-stimulation with the PAP-115-123 analogue epitope peptide, as determined using an ELISPOT assay. PBMCs were cultured in vitro with 5 μg of PAP-114-128 analogue epitope for 7 days. The cells were then washed and rested overnight, at which time and 4×10^4 cells were added to each well of an ELISPOT plate. PAP-115-123 analogue epitope peptide (1 μg) was added to each well and the cells were cultured for 48 hours. The plates were then washed according to the manufacturer's protocol. PBMCs cultured with no added peptide were used as the control. Comparisons of means (±SEM) between groups (PBMCs pulsed with PAP-115-123 analogue or no peptide) are made using an unpaired t test.
To determine the presence of circulating T cells specific for PAP-115-123 in humans, PBMCs from HLA-A2 positive patients with prostate cancer and individuals with benign disease were used. Cryopreserved PBMCs were thawed, washed and restimulated for 7 days with […] epitope peptide. The cells were then washed and rested overnight, at which time 4×10^4 cells were added to each well of an ELISPOT plate. PAP-115-123 epitope peptide (1 μg) was added to each well and the cells cultured for 48 hours. The plates were developed according to the manufacturer's instructions. PBMCs cultured with no peptide were used as controls. […] The number of IFNγ spots generated by PBMCs from one of the patients was as high as 220 (vs 60 spots for the control). The number of spots generated by PBMCs for the other 6 patients with prostate cancer ranged between 50 and 100 (vs 10-20 in controls). Although some of the PBMCs from individuals with benign disease generated 50-100 spots, the number of spots in the control wells was also high.
To determine the presence of circulating T cells specific for PAP-115-123 analogue peptide in humans, PBMCs from HLA-A2 positive patients with prostate cancer and individuals with benign disease were used. Cryopreserved PBMCs were thawed, washed and restimulated for 7 days with […] analogue epitope. The cells were then washed and rested overnight, at which time 4×10^4 cells were added to each well of an ELISPOT plate. 1 μg of PAP-115-123 analogue epitope was added to each well and cells were cultured for 48 hours. The plates were developed as per the manufacturer's instructions. PBMCs cultured with no peptide were used as control. […] The number of IFNγ spots in one of the patients was as high as 180 spots compared to control (54 spots). Similar response was also obtained when PBMCs were co-cultured with PAP-115-123 epitope (FIG. 3). The number of spots generated by PBMCs from the 6 patients with prostate cancer patients ranged between 50 and 100 (vs 10-20 in control wells). Although some of the samples from individuals with benign disease generated 50-100 spots, the number of spots in the control wells was also high.

## ILLWQPIPV (PAP with Ala to Leu change at position 115) [PAP 135]
HLA-A2
  binding to HLA-A2: strong binding

## MSLMTNLAALFPPEG (PAP with A-L mutation at position 3 of peptide) [PAP-114-128 analogue peptide]
Splenocytes [1]
  number of spots generated by splenocytes from immunised animals: 590 spots
Splenocytes [1]; C57Bl/6, FIG. 9A
  fold higher IFNγ response vs PAP-114-128 immunisation: 2 fold
Splenocytes [1]; C57Bl/6 mice, discussion
  immune response on the basis of the IFNγ response, compared to immunisation with PAP-114-128: significantly more potent
Splenocytes [1]; peptide concentrations of 1, 0.1, 0.01 and 0.001 mg/ml, p<0.05, FIG. 9B
  IFNγ response of splenocytes pulsed with varying peptide concentrations vs native peptide group: significantly higher
TRAMP-C1 cells; 1×10^5 MC38 cells (do not express PAP)
  number of spots, MC38 cells as stimulators: 100 spots
TRAMP-C1 cells; 1×10^6 splenocytes, 1×10^5 TRAMP-C1 cells (naturally express PAP)
  number of spots, splenocytes co-cultured with TRAMP-C1 cells: 650 spots
TRAMP-C1 cells; discussion
  lysis of TRAMP-C1 cells by T cells generated in C57Bl/6 mice: able to lyse TRAMP-C1 cells
TRAMP-C1 cells; unpaired t-test, p<0.05
  IFNγ response with TRAMP-C1 vs MC38 cells: Significantly higher
Splenocytes [2]; discussion
  immune response on the basis of the IFNγ response, compared to immunisation with PAP-114-128: significantly more potent

## PAP-114-128: immunogenic class II PAP epitope that incorporates class I PAP-115-123 (MSAMTNLAALFPPEG; UniProt P15309 114-128, looked up, fragment)
Splenocytes [1]
  number of spots generated by splenocytes from immunised animals: 280 spots
Splenocytes [2]; 10 μg class II peptide
  IFNγ response of splenocytes co-cultured with class II epitope: No significant IFNγ response

## SLMTNLAAL (PAP with A-L mutation at position 2 of peptide) [PAP-115-123 analogue peptide, 9-mer PAP analogue with alanine changed to leucine]
Splenocytes [2]; 1 μg class I peptide, vs native peptide group, p<0.05
  IFNγ response of splenocytes co-cultured with class I PAP115-123 and PAP-115-123 analogue peptide epitopes: significantly higher
[3]; 1 μg peptide, 4×10^4 cells per well, 10-20 in controls
  number of spots, other 6 patients with prostate cancer: 50-100 spots
[3]; 1 μg peptide, spots in control wells also high
  number of spots, some PBMCs from individuals with benign disease: 50-100 spots
[3]; 1 μg peptide, listed as PAP115-123 analogue peptide
  peptide-specific IFNγ response in samples from individuals with benign disease: not responsive
[3]; 1 μg peptide, listed as PAP-115-123 analogue
  peptide-specific IFNγ response in samples from individuals with benign disease: no PAP-115-123 analogue specific IFNγ response
[3]; discussion
  responsiveness of PBMCs from patients with prostate cancer: greater
[3]; of 10 samples, 7 days re-stimulation with the 15-mer, then 1 μg peptide, 48 hours, vs no peptide
  PBMC samples from patients with prostate cancer with peptide-specific IFNγ response: 7
[3]; one prostate cancer patient, 1 μg peptide, 4×10^4 cells per well, 48 hours
  number of IFNγ spots, highest patient: 180 spots
